Measured values: US6420558B1, “Aminopiperidine derivates as integrin αvβ3 antagonists” (Meiji Seika Kaisha, Ltd., priority 1998, dated 2002)

Key:
[1] = molecular target: T1, integrin α5β1 (fibronectin receptor purified from the human placenta) (Homo sapiens, UniProt P05556+P08648); experiment: α5β1 binding assay (fibronectin-fibronectin receptor binding assay); settings: fibronectin binding to human placenta fibronectin receptor; read-out: α5β1 Binding inhibitory activity
T1 construct: a fibronectin receptor (protein content: 52.1 μg/ml) purified from the human placenta; from tissue; host or cells: human placenta
Experimental: (§1) Integrin α5β1 antagonistic activity (lethality) was measured for the compounds according to the present invention in a fibronectin-fibronectin receptor binding assay system in accordance with the method of Kouns et al. (W. C. Kouns, D. Kirchhofer, P. Hadvary, A. Edenhofer, T. Weller, G. Pfenninger, H. R. Baumgartner, L. K. Jennings, and B. Steiner, Blood, 80, 2539-2547 (1992)).
Specifically, a fibronectin receptor (protein content: 52.1 μg/ml) purified from the human placenta by the method of Pytela et al. (R. Pytela, M. D. Pierschbacher, S. Argraves, S. Suzuki, and E. Ruoslahti, Method in Enzymology, 144, 475-489 (1987)) was diluted 25 times with TBS (20 mM Tris-HCl, 150 mM NaCl, 1 mM CaCl2, 1 mM MgCl2, pH 7.4), and distributed and coated on wells (50 μl/well) of a plate (Maxisorp, Nunc, 96 well Immuno Plate). The plate was then allowed to stand at 4° C. for one day, washed twice with TBS (200 μl/well), and then subjected to blocking with TBS (150 μl/well) containing 3% skim milk (DIFCO) at 4° C. overnight. After washing twice with TBS (200 μl/well) containing 0.05% Tween-20 and then washing twice with TBS (200 μl/well), purification was carried out according to the method of E. Engvall et al. (E. Engvall, E. Ruoslahti, and E. J. Miller, J. Exp. Med., 147, 1584-1595 (1978)), and 50 […] of fibronectin adjusted to 0.2 μg/ml by the addition of TBS (TBS-Tween) containing 0.01% Tween-20 was mixed with 50 μl of each test compound adjusted to each concentration in the wells, and a reaction was allowed to proceed at room temperature for 3 hr. After the completion of the reaction, the wells were washed five times with TBS-Tween. A solution prepared by diluting a peroxidase-labeled fibronectin antibody (CAPPEL) 500 times with TBS-Tween was added in an amount of 50 μl per well, and a reaction was allowed to proceed at room temperature for 1.5 hr. After washing five times with TBS-Tween (200 μl/well), ABTS (SIGMA) adjusted to 1 mg/ml by the addition of a ten-fold diluted POD-buffer (ZYMED) was added in an amount of 50 μl/well, and a reaction was allowed to proceed for 5 to 10 min. A 0.1 M citric acid buffer (pH 4.3) containing 0.05% NaN3 was added in an amount of 50 μl/well to stop the reaction, followed by the measurement of the absorbance at 415 nm with a microplate reader (MTP 32, Corona Electric) (reference: 675 nm). The total binding was defined as the absorbance after a reaction using 50 μl of TBS-Tween instead of the test compound, and the non-specific binding (100% inhibition) was defined as the absorbance after a reaction using 50 μl of TBS-Tween containing 2×10^−3 M RGDS. The inhibition was calculated by the following equation: [formula]
(§2) IC50 was determined from a primary regression line of the logarithm of each concentration of the test compound and the logarithm of (100−inhibition)/inhibition.

[2] = molecular target: T2, integrin αvβ3 (vitronectin receptor purified from the human placenta) (Homo sapiens, UniProt P05106+P06756); experiment: αvβ3 binding assay (vitronectin-vitronectin receptor binding assay); settings: vitronectin binding to human placenta vitronectin receptor; read-out: integrin αvβ3 antagonistic activity, IC50 value
T2 construct: a vitronectin receptor (protein content: 118 μg/ml) purified from the human placenta; from tissue; host or cells: human placenta
Experimental: as §1, with “αvβ3” for “α5β1”, “activity” for “activity (lethality)”, “vitronectin-vitronectin” for “fibronectin-fibronectin”, “Jennings” for “Jennings,”
Specifically, a vitronectin receptor (protein content: 118 μg/ml) purified from the human placenta in accordance with the method of Pytela et al. (R. Pytela, M. D. Pierschbacher, S. Argraves, S. Suzuki, and E. Ruoslahti, Method in Enzymology, 144, 475-489 (1987)) was diluted 50 times with TBS (20 mM Tris-HCl, 150 mM NaCl, 1 mM CaCl2, 1 mM MgCl2, pH 7.4), and distributed and coated on wells (50 μl/well) of a plate (Maxisorp, Nunc, 96 well Immuno Plate). The plate was then allowed to stand at 4° C. for 1 day, washed twice with TBS (200 μl/well), and then subjected to blocking with TBS (150 μl/well) containing 1% bovine serum albumin (SIGMA) at 4° C. overnight. After washing twice with TBS (200 μl/well), 50 μl of vitronectin (CALBIOCHEM) adjusted to 0.2 μg/ml by the addition of TBS (TBS-Tween) containing 0.01% Tween-20 was mixed with 50 μl of each test compound adjusted to each concentration in wells, and a reaction was allowed to proceed at room temperature for 4 hr. After the completion of the reaction, the wells were washed five times with TBS-Tween. A solution prepared by diluting anti-vitronectin rabbit antiserum (CHEMICON) 500 times with TBS-Tween was added as a primary antibody in an amount of 50 μl/well, and a reaction was allowed to proceed at room temperature for 1.5 hr. After washing five times with 200 μl/well of TBS-Tween, a peroxidase (POD)-labeled anti-rabbit IgG antibody solution (CAPPEL) diluted 500 times with TBS-Tween was added as a secondary antibody in an amount of 50 μl/well, and a reaction was allowed to proceed at room temperature for 1.5 hr. After washing five times with TBS-Tween (200 μl/well), ABTS (2,2′-azino-bis(3-ethylbenzthiazoline-6-sulfonic acid), SIGMA) was adjusted to 1 mg/ml by the addition of a ten-fold diluted POD-buffer (ZYMED), and added in an amount of 50 μl/well, and a reaction was allowed to proceed for 5 to 10 min. A 0.1 M citric acid buffer (pH 4.3) containing 0.05% NaN3 was added in an amount of 50 μl/well to stop the reaction, followed by the measurement of the absorbance at 415 nm with a microplate reader (MTP 32, Corona Electric) (reference: 675 nm). The total binding was defined as the absorbance after a reaction using 50 μl of TBS-Tween instead of the test compound, and the non-specific binding (100% inhibition) was defined as the absorbance after a reaction using 50 μl of TBS-Tween containing 2×10^−3 M RGDS. The inhibition was calculated by the following equation: [formula]
as §2

GP IIb/IIIa = GP IIb/IIIa (Homo sapiens, UniProt P05106+P08514); experiment: GP IIb/IIIa antagonistic activity (method of Pharmacological Test 2 in WO 94/21599); format: binding
Experimental: (§3) GP IIb/IIIa Antagonistic Activity and Human Platelet Aggregation Inhibitory Activity
GP IIb/IIIa antagonistic activity was measured for the compounds according to the present invention. The measurement of the GP IIb/IIIa antagonistic activity was carried out according to the method described in Pharmacological Test 2 in WO 94/21599.

[3] = tested on: human platelet aggregation; experiment: Human platelet aggregation inhibitory activity (method of Pharmacological Test 1 in WO 94/21599); format: cell-based; settings: human platelets, read-out: inhibition of human platelet aggregation, IC5. value
Experimental: as §3
Human platelet aggregation inhibitory activity was measured for the compounds according to the present invention. The measurement of the human platelet aggregation activity was carried out according to the method described in Pharmacological Test 1 in WO 94/21599.

Sequence of GP IIb/IIIa (P08514 32-887 limits assumed): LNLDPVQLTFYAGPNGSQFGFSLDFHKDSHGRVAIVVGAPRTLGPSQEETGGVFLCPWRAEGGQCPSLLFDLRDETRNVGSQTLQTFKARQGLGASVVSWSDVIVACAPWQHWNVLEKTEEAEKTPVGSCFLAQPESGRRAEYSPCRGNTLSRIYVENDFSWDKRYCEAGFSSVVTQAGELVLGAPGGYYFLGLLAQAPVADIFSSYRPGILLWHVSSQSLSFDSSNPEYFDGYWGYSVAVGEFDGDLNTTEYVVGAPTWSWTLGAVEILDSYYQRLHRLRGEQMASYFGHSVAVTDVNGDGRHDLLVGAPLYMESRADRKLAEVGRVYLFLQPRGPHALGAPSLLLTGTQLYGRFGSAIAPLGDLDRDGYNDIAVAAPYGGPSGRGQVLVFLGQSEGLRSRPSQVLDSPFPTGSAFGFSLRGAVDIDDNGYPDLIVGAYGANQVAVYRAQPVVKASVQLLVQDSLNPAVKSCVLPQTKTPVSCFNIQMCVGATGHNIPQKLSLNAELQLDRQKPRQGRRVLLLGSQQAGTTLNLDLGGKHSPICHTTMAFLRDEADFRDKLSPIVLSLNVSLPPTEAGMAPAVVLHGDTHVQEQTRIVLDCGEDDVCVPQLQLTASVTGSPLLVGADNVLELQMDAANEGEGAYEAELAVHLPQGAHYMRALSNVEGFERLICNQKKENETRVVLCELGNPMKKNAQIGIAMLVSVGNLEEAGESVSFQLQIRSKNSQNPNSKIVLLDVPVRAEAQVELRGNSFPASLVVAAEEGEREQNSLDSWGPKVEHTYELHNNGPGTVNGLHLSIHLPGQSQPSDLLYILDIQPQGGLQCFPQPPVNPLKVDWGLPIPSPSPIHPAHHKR
Sequence of GP IIb/IIIa (P08514 891-1039 limits assumed): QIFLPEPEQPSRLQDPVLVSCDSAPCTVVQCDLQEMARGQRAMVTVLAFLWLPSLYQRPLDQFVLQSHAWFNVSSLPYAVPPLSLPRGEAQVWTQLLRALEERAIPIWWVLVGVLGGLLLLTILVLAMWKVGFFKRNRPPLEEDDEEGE
Sequence of GP IIb/IIIa (P05106 27-788): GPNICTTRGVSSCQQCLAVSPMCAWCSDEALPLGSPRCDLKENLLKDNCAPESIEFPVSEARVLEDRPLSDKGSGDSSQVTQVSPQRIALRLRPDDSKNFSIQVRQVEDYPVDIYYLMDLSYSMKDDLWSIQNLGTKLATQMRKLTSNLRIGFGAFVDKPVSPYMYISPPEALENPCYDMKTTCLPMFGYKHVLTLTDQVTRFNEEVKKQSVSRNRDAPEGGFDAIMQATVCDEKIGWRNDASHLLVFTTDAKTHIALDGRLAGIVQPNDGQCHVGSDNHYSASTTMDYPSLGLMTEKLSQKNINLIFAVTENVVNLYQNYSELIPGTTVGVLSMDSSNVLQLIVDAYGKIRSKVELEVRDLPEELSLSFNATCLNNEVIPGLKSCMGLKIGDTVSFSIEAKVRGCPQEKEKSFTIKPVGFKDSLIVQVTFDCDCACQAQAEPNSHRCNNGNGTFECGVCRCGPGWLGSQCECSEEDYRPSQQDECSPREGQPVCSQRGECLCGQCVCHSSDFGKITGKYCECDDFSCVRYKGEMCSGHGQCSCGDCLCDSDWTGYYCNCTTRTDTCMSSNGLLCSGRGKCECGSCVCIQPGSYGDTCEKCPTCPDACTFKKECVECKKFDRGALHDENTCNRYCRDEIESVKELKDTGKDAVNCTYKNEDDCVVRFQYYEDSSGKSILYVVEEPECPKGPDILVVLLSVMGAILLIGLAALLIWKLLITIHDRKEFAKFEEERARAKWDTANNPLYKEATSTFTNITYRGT
T2 sequence (P06756 31-889 limits assumed): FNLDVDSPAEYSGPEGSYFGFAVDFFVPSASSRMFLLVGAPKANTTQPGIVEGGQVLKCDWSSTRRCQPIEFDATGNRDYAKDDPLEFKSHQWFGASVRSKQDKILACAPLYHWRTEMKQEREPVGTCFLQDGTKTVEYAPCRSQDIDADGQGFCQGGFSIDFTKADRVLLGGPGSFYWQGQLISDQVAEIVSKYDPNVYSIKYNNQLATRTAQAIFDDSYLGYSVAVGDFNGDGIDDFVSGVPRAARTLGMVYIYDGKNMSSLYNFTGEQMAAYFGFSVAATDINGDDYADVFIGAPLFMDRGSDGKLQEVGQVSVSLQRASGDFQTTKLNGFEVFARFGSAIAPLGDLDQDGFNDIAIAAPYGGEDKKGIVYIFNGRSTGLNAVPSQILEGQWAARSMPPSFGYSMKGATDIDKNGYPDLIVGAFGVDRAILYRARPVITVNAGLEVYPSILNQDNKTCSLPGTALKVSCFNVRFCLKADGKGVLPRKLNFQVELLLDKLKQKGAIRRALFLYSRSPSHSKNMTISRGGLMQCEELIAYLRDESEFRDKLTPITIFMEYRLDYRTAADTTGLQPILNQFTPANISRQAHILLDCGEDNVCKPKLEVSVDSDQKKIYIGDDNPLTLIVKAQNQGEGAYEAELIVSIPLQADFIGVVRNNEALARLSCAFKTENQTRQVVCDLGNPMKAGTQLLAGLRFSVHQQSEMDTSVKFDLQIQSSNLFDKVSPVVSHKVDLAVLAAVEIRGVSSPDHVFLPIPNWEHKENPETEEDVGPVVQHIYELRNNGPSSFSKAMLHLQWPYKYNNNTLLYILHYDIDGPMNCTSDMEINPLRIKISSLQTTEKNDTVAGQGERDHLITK
T2 sequence (P06756 891-1048 limits assumed): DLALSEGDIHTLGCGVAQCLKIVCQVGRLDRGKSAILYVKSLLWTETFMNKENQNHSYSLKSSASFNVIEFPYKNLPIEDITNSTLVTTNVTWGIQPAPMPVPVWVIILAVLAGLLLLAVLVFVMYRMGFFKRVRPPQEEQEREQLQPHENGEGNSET
T2 sequence (P05106 27-788): as the sequence (P05106 27-788) above
T1 sequence (P08648 42-894 limits assumed): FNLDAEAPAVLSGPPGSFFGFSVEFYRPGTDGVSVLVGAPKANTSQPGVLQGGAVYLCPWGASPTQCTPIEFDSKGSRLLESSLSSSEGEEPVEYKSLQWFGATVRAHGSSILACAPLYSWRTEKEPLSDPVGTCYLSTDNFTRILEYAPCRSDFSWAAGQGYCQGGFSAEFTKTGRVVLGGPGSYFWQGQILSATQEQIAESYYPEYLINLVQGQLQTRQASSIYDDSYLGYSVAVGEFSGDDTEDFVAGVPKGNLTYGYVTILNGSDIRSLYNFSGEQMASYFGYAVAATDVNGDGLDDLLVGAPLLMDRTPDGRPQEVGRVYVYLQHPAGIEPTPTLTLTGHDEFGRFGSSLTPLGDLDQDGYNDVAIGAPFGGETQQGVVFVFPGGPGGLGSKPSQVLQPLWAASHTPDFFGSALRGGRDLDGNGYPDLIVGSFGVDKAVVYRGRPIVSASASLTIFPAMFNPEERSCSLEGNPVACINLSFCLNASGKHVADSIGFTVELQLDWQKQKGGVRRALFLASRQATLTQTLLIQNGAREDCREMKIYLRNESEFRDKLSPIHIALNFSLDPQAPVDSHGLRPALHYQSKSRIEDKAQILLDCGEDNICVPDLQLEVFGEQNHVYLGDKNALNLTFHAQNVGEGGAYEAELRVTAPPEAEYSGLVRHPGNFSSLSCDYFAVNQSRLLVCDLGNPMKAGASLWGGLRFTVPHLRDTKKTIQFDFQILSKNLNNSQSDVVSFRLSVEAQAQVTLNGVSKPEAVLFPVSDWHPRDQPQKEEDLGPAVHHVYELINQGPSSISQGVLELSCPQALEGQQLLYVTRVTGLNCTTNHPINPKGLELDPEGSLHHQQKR
T1 sequence (P08648 895-1049 limits assumed): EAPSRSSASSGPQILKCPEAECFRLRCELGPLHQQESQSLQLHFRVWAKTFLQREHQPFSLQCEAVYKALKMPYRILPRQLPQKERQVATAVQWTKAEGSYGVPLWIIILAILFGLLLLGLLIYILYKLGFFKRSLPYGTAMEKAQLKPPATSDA
T1 sequence (P05556 21-798): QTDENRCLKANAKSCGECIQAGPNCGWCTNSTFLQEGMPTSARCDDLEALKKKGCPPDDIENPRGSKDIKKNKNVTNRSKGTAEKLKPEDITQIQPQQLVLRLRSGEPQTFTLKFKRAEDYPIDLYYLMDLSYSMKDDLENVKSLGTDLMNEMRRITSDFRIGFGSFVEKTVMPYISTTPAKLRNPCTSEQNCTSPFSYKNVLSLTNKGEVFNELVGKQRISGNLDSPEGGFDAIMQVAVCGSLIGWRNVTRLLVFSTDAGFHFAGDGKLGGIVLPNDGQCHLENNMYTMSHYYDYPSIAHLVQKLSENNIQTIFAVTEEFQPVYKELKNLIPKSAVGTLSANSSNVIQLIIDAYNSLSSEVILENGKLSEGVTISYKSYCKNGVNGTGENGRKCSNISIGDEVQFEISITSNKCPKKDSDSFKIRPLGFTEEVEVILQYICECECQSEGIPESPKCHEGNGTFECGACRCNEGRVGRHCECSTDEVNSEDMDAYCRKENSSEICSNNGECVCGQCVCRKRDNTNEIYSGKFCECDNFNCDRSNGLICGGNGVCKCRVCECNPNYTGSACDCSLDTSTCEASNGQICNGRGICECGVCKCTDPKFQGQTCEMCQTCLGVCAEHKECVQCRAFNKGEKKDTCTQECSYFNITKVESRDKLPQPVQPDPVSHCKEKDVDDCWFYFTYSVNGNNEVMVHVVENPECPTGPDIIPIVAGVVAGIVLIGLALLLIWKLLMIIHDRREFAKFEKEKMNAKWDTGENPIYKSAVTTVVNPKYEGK

| Compound | IC50 [1] [nM] | IC50 [2] [nM] | IC50 (GP IIb/IIIa) [nM] | IC50 [3] [nM] |
| --- | --- | --- | --- | --- |
| CCCCS(=O)(=O)N[C@@H](CNC(=O)c1ccc(N2CCC(Nc3nc4ccccc4[nH]3)CC2)cc1)C(=O)O [Example 28, (2S)-Butane-1-sulfonylamino-3-[4-{4-(1H-benzimidazol-2-ylamino)piperidin-1-yl}benzoylamino]-propionic acid] | 1300 | ≤ 1 | ≤ 1 | – |
| O=C(N[C@@H](CNC(=O)c1ccc(N2CCC(Nc3nc4ccccc4[nH]3)CC2)cc1)C(=O)O)OCc1ccccc1 [Example 24, 3-[4-{4-(1H-Benzimidazol-2-ylamino)piperidin-1-yl}benzoylamino]-(2S)-{(benzyloxy-carbonyl)amino}propionic acid] | 6900 | – | ≤ 1 | – |
| CN(C1=NCCCN1)C1CCN(c2ccc(C(=O)NC[C@H](NS(=O)(=O)c3ccccc3)C(=O)O)cc2)CC1 [Example 45, (2S)-Benzenesulfonylamino-3-[4-[4-[{N-methyl-N-(1,4,5,6-tetrahydropyrimidin-2-yl)}amino]-piperidin-1-yl]benzoylamino]propionic acid] | – | – | ≤ 1 | ≤ 90 |
| O=C(NC[C@H](NS(=O)(=O)c1ccccc1)C(=O)O)c1ccc(N2CCC(Nc3nc4ccccc4[nH]3)CC2)cc1 [Example 10, (2S)-Benzenesulfonylamino-3-[4-{4-(1H-benzimidazol-2-ylamino)piperidin-1-yl}benzoylamino]-propionic acid] | 1600 | – | – | – |

Continued, values first:

| IC50 [1] [nM] | IC50 [2] [nM] | IC50 (GP IIb/IIIa) [nM] | IC50 [3] [nM] | Compound |
| --- | --- | --- | --- | --- |
| 11500 | ≤ 1 | ≤ 1 | – | Nc1ccc(S(=O)(=O)N[C@@H](CNC(=O)c2ccc(N3CCC(NC4=NCCCN4)CC3)c(F)c2)C(=O)O)cc1 [Example 68, (2S)-(4-Aminobenzenesulfonyl)amino-3-[3-fluoro-4-{4-(1,4,5,6-tetrahydropyrimidin-2-ylamino)-piperidin-1-yl}benzoylamino]propionic acid] |
| – | ≤ 1 | ≤ 1 | ≤ 90 | O=C(NC[C@H](NS(=O)(=O)c1ccccc1)C(=O)O)c1ccc(N2CCC(NC3=NCCCCN3)CC2)cc1 [Example 42, (2S)-Benzenesulfonylamino-3-[4-{4-(4,5,6,7-tetrahydro-1H-[1,3]diazepin-2-ylamino)piperidin-1-yl}-benzoylamino]propionic acid] |
| 1600 | – | – | – | O=C(NC[C@H](NS(=O)(=O)c1ccccc1)C(=O)O)c1ccc(N2CCC(NC3=NCCCN3)CC2)cc1 [Example 3, (2S)-Benzenesulfonylamino-3-[4-{4-(1,4,5,6-tetrahydropyrimidin-2-ylamino)piperidin-1-yl}benzoyl-amino]propionic acid] |
| – | ≤ 1 | ≤ 1 | ≤ 90 | O=C(NC[C@H](NS(=O)(=O)c1ccccc1)C(=O)O)c1ccc(N2CCC(NC3=NCCN3)CC2)c(F)c1 [Example 54, (2S)-Benzenesulfonylamino-3-[3-fluoro-4-{4-(4,5-dihydro-1H-imidazol-2-ylamino)piperidin-1-yl}-benzoylamino]propionic acid] |
| – | – | ≤ 1 | ≤ 90 | O=C(NC[C@H](NS(=O)(=O)c1ccccc1)C(=O)O)c1ccc(N2CCC(NC3=NCCN3)CC2)cc1 [Example 40, (2S)-Benzenesulfonylamino-3-[4-{4-(4.5-dihydro-1H-imidazol-2-ylamino)piperidin-1-yl}benzoyl-amino]propionic acid] |
